Reference: patent US20110071108A1, “Beta-Cyclodextrin Derivatives as Antibacterial Agents” (Pinnacle Pharmaceuticals, Inc., priority 2005, published 2011)

Tests used:
[1] = tested on: Salmonella choleraesuis; assay: Bacterial panel testing, MIC by broth microdilution; format: cell-based; details: 20-24 hours growth
Outline: (§1)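 MIC via two-fold broth microdilution of compound (diluted to 10 μg/ml in DMSO) in McFarland-standardized, diluted inoculum in Mueller-Hinton or Brain Heart infusion media. Plates sealed (E. faecium with air-pore tape), incubated 20-24 h; clear wells read. Rifampicin included as control.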

[2] = tested on: Enterococcus faecium; assay: as above; format: cell-based; details: 20-24 hours growth
Outline: as §1

[3] = tested on: Pseudomonas aeruginosa; assay: as above; format: cell-based; details: 20-24 hours growth
Outline: as §1

[4] = tested on: Eschericia coli; assay: as above; format: cell-based; details: 20-24 hours growth
Outline: as §1

[5] = tested on: Staphylococcus aureus; assay: as above; format: cell-based; details: 20-24 hours growth
Outline: as §1

[6] = tested on: Bacillus atrophaeus; assay: as above; format: cell-based; details: 20-24 hours growth
Outline: as §1

[7] = tested on: Lungs cancer cells A549; assay: Mammalian cytotoxicity

SMILES | MIC SC [1] [µg/mL] | MIC EF [2] [µg/mL] | MIC PA [3] [µg/mL] | MIC EC [4] [µg/mL] | MIC SA [5] [µg/mL] | MIC BA [6] [µg/mL] | Mammalian Cytotoxicity IC50 [7] [µg/mL]
OC[C@H]1O[C@@H]2O[C@H]3[C@H](O)[C@@H](O)[C@@H](O[C@H]4[C@H](O)[C@@H](O)[C@@H](O[C@H]5[C@H](O)[C@@H](O)[C@@H](O[C@H]6[C@H](O)[C@@H](O)[C@@H](O[C@H]7[C@H](O)[C@@H](O)[C@@H](O[C@H]8[C@H](O)[C@@H](O)[C@@H](O[C@H]1[C@H](O)[C@H]2O)O[C@@H]8CO)O[C@@H]7CO)O[C@@H]6CO)O[C@@H]5CO)O[C@@H]4CO)O[C@@H]3CO | >200 | >200 | >200 | >200 | >200 | >200 | –
O[C@@H]1[C@@H](O)[C@H]2O[C@H]3[C@H](O)[C@@H](O)[C@@H](O[C@H]4[C@H](O)[C@@H](O)[C@@H](O[C@H]5[C@H](O)[C@@H](O)[C@@H](O[C@H]6[C@H](O)[C@@H](O)[C@@H](O[C@H]7[C@H](O)[C@@H](O)[C@@H](O[C@H]8[C@H](O)[C@@H](O)[C@@H](O[C@@H]1[C@@H](CNCc1ccccc1)O2)O[C@@H]8CNCc1ccccc1)O[C@@H]7CNCc1ccccc1)O[C@@H]6CNCc1ccccc1)O[C@@H]5CNCc1ccccc1)O[C@@H]4CNCc1ccccc1)O[C@@H]3CNCc1ccccc1 | – | – | >200 | – | – | – | 840
OC1C2OC(Cn3cc(Cc4ccccc4)nn3)C(OC3OC(Cn4cc(Cc5ccccc5)nn4)C(OC4OC(Cn5cc(Cc6ccccc6)nn5)C(OC5OC(Cn6cc(Cc7ccccc7)nn6)C(OC6OC(Cn7cc(Cc8ccccc8)nn7)C(OC7OC(Cn8cc(Cc9ccccc9)nn8)C(OC8OC(Cn9cc(Cc%10ccccc%10)nn9)C(O2)C(O)C8O)C(O)C7O)C(O)C6O)C(O)C5O)C(O)C4O)C(O)C3O)C1O (stereo not shown) | >200 | >200 | >200 | >200 | >200 | >200 | –
Cl.Cl.Cl.Cl.Cl.Cl.Cl.NC(CCC(=O)O)C(=O)NCC1OC2OC3C(CNC(=O)C(N)CCC(=O)O)OC(OC4C(CNC(=O)C(N)CCC(=O)O)OC(OC5C(CNC(=O)C(N)CCC(=O)O)OC(OC6C(CNC(=O)C(N)CCC(=O)O)OC(OC7C(CNC(=O)C(N)CCC(=O)O)OC(OC8C(CNC(=O)C(N)CCC(=O)O)OC(OC1C(O)C2O)C(O)C8O)C(O)C7O)C(O)C6O)C(O)C5O)C(O)C4O)C(O)C3O (stereo not shown) | >200 | >200 | >200 | >200 | >200 | >200 | –
Cl.Cl.Cl.Cl.Cl.Cl.Cl.Cl.Cl.Cl.Cl.Cl.Cl.Cl.NC(Cc1cnc[nH]1)C(=O)NCC1OC2OC3C(CNC(=O)C(N)Cc4cnc[nH]4)OC(OC4C(CNC(=O)C(N)Cc5cnc[nH]5)OC(OC5C(CNC(=O)C(N)Cc6cnc[nH]6)OC(OC6C(CNC(=O)C(N)Cc7cnc[nH]7)OC(OC7C(CNC(=O)C(N)Cc8cnc[nH]8)OC(OC8C(CNC(=O)C(N)Cc9cnc[nH]9)OC(OC1C(O)C2O)C(O)C8O)C(O)C7O)C(O)C6O)C(O)C5O)C(O)C4O)C(O)C3O (stereo not shown) | >200 | >200 | >200 | >200 | >200 | >200 | –
OC1C2OC(CNC(=S)Nc3ccccc3)C(OC3OC(CNC(=S)Nc4ccccc4)C(OC4OC(CNC(=S)Nc5ccccc5)C(OC5OC(CNC(=S)Nc6ccccc6)C(OC6OC(CNC(=S)Nc7ccccc7)C(OC7OC(CNC(=S)Nc8ccccc8)C(OC8OC(CNC(=S)Nc9ccccc9)C(O2)C(O)C8O)C(O)C7O)C(O)C6O)C(O)C5O)C(O)C4O)C(O)C3O)C1O (stereo not shown) | >200 | >200 | >200 | >200 | >200 | >200 | –
OC1C2OC(CNC(=S)NCc3ccccc3)C(OC3OC(CNC(=S)NCc4ccccc4)C(OC4OC(CNC(=S)NCc5ccccc5)C(OC5OC(CNC(=S)NCc6ccccc6)C(OC6OC(CNC(=S)NCc7ccccc7)C(OC7OC(CNC(=S)NCc8ccccc8)C(OC8OC(CNC(=S)NCc9ccccc9)C(O2)C(O)C8O)C(O)C7O)C(O)C6O)C(O)C5O)C(O)C4O)C(O)C3O)C1O (stereo not shown) | >200 | >200 | >200 | >200 | >200 | >200 | –
O[C@@H]1[C@@H](O)[C@H]2O[C@H]3[C@H](O)[C@@H](O)[C@@H](O[C@H]4[C@H](O)[C@@H](O)[C@@H](O[C@H]5[C@H](O)[C@@H](O)[C@@H](O[C@H]6[C@H](O)[C@@H](O)[C@@H](O[C@H]7[C@H](O)[C@@H](O)[C@@H](O[C@H]8[C@H](O)[C@@H](O)[C@@H](O[C@@H]1[C@@H](CNCCc1ccccc1)O2)O[C@@H]8CNCCc1ccccc1)O[C@@H]7CNCCc1ccccc1)O[C@@H]6CNCCc1ccccc1)O[C@@H]5CNCCc1ccccc1)O[C@@H]4CNCCc1ccccc1)O[C@@H]3CNCCc1ccccc1 | – | – | >200 | – | – | – | 43
O[C@@H]1[C@@H](O)[C@H]2O[C@H]3[C@H](O)[C@@H](O)[C@@H](O[C@H]4[C@H](O)[C@@H](O)[C@@H](O[C@H]5[C@H](O)[C@@H](O)[C@@H](O[C@H]6[C@H](O)[C@@H](O)[C@@H](O[C@H]7[C@H](O)[C@@H](O)[C@@H](O[C@H]8[C@H](O)[C@@H](O)[C@@H](O[C@@H]1[C@@H](CNC1CCN(Cc9ccccc9)CC1)O2)O[C@@H]8CNC1CCN(Cc2ccccc2)CC1)O[C@@H]7CNC1CCN(Cc2ccccc2)CC1)O[C@@H]6CNC1CCN(Cc2ccccc2)CC1)O[C@@H]5CNC1CCN(Cc2ccccc2)CC1)O[C@@H]4CNC1CCN(Cc2ccccc2)CC1)O[C@@H]3CNC1CCN(Cc2ccccc2)CC1 | – | – | >200 | – | – | – | 127
CCCCCCNC[C@H]1O[C@@H]2O[C@H]3[C@H](O)[C@@H](O)[C@@H](O[C@H]4[C@H](O)[C@@H](O)[C@@H](O[C@H]5[C@H](O)[C@@H](O)[C@@H](O[C@H]6[C@H](O)[C@@H](O)[C@@H](O[C@H]7[C@H](O)[C@@H](O)[C@@H](O[C@H]8[C@H](O)[C@@H](O)[C@@H](O[C@H]1[C@H](O)[C@H]2O)O[C@@H]8CNCCCCCC)O[C@@H]7CNCCCCCC)O[C@@H]6CNCCCCCC)O[C@@H]5CNCCCCCC)O[C@@H]4CNCCCCCC)O[C@@H]3CNCCCCCC | – | – | >200 | – | – | – | 129
CCCCCCCCNC[C@H]1O[C@@H]2O[C@H]3[C@H](O)[C@@H](O)[C@@H](O[C@H]4[C@H](O)[C@@H](O)[C@@H](O[C@H]5[C@H](O)[C@@H](O)[C@@H](O[C@H]6[C@H](O)[C@@H](O)[C@@H](O[C@H]7[C@H](O)[C@@H](O)[C@@H](O[C@H]8[C@H](O)[C@@H](O)[C@@H](O[C@H]1[C@H](O)[C@H]2O)O[C@@H]8CNCCCCCCCC)O[C@@H]7CNCCCCCCCC)O[C@@H]6CNCCCCCCCC)O[C@@H]5CNCCCCCCCC)O[C@@H]4CNCCCCCCCC)O[C@@H]3CNCCCCCCCC | – | – | >200 | – | – | – | 123
OC1C2OC(CNC3CCNCC3)C(OC3OC(CNC4CCNCC4)C(OC4OC(CNC5CCNCC5)C(OC5OC(CNC6CCNCC6)C(OC6OC(CNC7CCNCC7)C(OC7OC(CNC8CCNCC8)C(OC8OC(CNC9CCNCC9)C(O2)C(O)C8O)C(O)C7O)C(O)C6O)C(O)C5O)C(O)C4O)C(O)C3O)C1O (stereo not shown) | >200 | – | >200 | – | – | – | 378
Cc1ccc(CNCC2OC3OC4C(CNCc5ccc(C)cc5)OC(OC5C(CNCc6ccc(C)cc6)OC(OC6C(CNCc7ccc(C)cc7)OC(OC7C(CNCc8ccc(C)cc8)OC(OC8C(CNCc9ccc(C)cc9)OC(OC9C(CNCc%10ccc(C)cc%10)OC(OC2C(O)C3O)C(O)C9O)C(O)C8O)C(O)C7O)C(O)C6O)C(O)C5O)C(O)C4O)cc1 (stereo not shown) | >200 | – | >200 | – | – | – | 376
C[C@@H](NCC1OC2OC3C(CN[C@H](C)c4ccccc4)OC(OC4C(CN[C@H](C)c5ccccc5)OC(OC5C(CN[C@H](C)c6ccccc6)OC(OC6C(CN[C@H](C)c7ccccc7)OC(OC7C(CN[C@H](C)c8ccccc8)OC(OC8C(CN[C@H](C)c9ccccc9)OC(OC1C(O)C2O)C(O)C8O)C(O)C7O)C(O)C6O)C(O)C5O)C(O)C4O)C(O)C3O)c1ccccc1 (stereo partly shown) | – | – | >200 | – | – | – | 105
COc1cccc(CNCC2OC3OC4C(CNCc5cccc(OC)c5)OC(OC5C(CNCc6cccc(OC)c6)OC(OC6C(CNCc7cccc(OC)c7)OC(OC7C(CNCc8cccc(OC)c8)OC(OC8C(CNCc9cccc(OC)c9)OC(OC9C(CNCc%10cccc(OC)c%10)OC(OC2C(O)C3O)C(O)C9O)C(O)C8O)C(O)C7O)C(O)C6O)C(O)C5O)C(O)C4O)c1 (stereo not shown) | – | – | >200 | – | – | – | 282
COc1ccccc1CNCC1OC2OC3C(CNCc4ccccc4OC)OC(OC4C(CNCc5ccccc5OC)OC(OC5C(CNCc6ccccc6OC)OC(OC6C(CNCc7ccccc7OC)OC(OC7C(CNCc8ccccc8OC)OC(OC8C(CNCc9ccccc9OC)OC(OC1C(O)C2O)C(O)C8O)C(O)C7O)C(O)C6O)C(O)C5O)C(O)C4O)C(O)C3O (stereo not shown) | – | – | >200 | – | – | – | 297
